Measurements reported in publication PMC12595484, “Optimizing multifunctional fluorescent ligands for intracellular labeling” (Proceedings of the National Academy of Sciences of the …, 2025).

Columns and labels:
[1] = test system: sfGFP–BRD4 in Neuro2a cells expressing coilin–HaloTag; assay: BRD4 translocation to coilin–HaloTag, LLSM; type: cell-based; settings: Neuro2a cells, LLSM, 90 min
Procedure: The ability of JQ1 ligands to enter living cells and recruit BRD4 to defined genomic regions was evaluated using lattice light sheet fluorescence microscopy (LLSM). Neuro2a cells were transiently transfected with plasmids encoding three fusion proteins: i) HaloTag protein fused to coilin, […]; ii) superfolder GFP–BRD4; and iii) histone H2B–mCherry as a nuclear marker. The Cajal body component coilin localizes in distinct puncta in the nucleus ([62]) compared to the diffuse euchromatic distribution of BRD4. […]
Neuro2a cell culture, labeling, lattice light sheet microscopy (LLSM), and confocal microscopy. […]
Full 3D volumes at multiple stage positions were collected at 2 minute intervals for 90 minutes total. […] The recruitment of histone H3.3 was assessed by imaging after 24 h incubation with 19HTL. […]
LLSM imaging processing. Raw image data volumes were deskewed and rotated, then empirically deconvolved using a Richardson-Lucy maximum likelihood algorithm using experimentally measured PSFs for each color channel for 30 iterations. […] These segmentation masks were then used to isolate each nucleus for further quantitative analyses. […] The amount of BRD4 signal was then assessed in- versus outside HaloTag labeled domains throughout the 90-min time-lapse acquisition. […]

[2] = test system: sfGFP–BRD4 in Neuro2a cells expressing HP1a–HaloTag; assay: BRD4 translocation to HP1a–HaloTag, LLSM; type: cell-based; settings: 90 min
Excerpt: Given its lower fluorescence background and more efficacious recruitment of BRD4, we focused on (S)-JQ1–JF635–HaloTag ligand (19HTL) for subsequent experiments. To test the generality of 19HTL in recruiting BRD4, we imaged cells expressing heterochromatin protein 1a (HP1a) fused to HaloTag (Fig. 7A). HP1a is localized within constitutive heterochromatin as its N-terminal chromodomain binds to methylated histone H3 ([65]).
(2HTL) and JF608-HaloTag ligand (3HTL) reached a fluorescence plateau, and they were chosen as saturating counter stains or “chase” dyes for examining the labeling efficiency of biotin-JF-HaloTag ligands (13HTL–16HTL). Next, we developed an in-gel assay to independently quantitate labeling efficiencies of 13HTL–16HTL. […] Bands representing HaloTag ligand were quantified by densitometry using […]
labeling efficiency calculations, bands representing saturating chase dye fluorescence (e.g., JF549) were compared to saturating primary dye fluorescence allowing estimation of the amount of […]
Where F is the fraction of HaloTag protein labeled, Ce is the experimental chase dye fluorescence signal after incubation with pulse biotin-JF-HaloTag ligand, and Cs is the saturating chase dye fluorescence without incubation with a pulse ligand. […]

In the case of (R)-JQ1–JF635–HaloTag ligand [20HTL], the “BRD4 recruitment to coilin–HaloTag sites” value [1] was “no GFP–BRD4 recruitment” and the “BRD4 translocation to HP1a–HaloTag” value [2] was “no GFP–BRD4 recruitment”.
